Here are results for one molecule from US8957106B2, “Iminosugar treatment of tumors” (The Chancellor, Masters and Scholars of the University of …, priority 2007, dated 2015).

The test system of assay [1] is MelJuSo melanoma cells. Description: MTS cell viability assay, MelJuSo. It counts as cell-based. The following applies: Homo sapiens, MEL-JUSO, 24 h, read-out: IC50 (concentration reducing number of viable cells by 50%). Here is the method: (§1) Cells were cultured at indicated densities for 24 h, medium was removed and the incubation was continued in a fresh culture medium containing various GC2 or DTIC concentrations. In control experiments, cells were grown in a culture medium containing GC2 buffer.
(§2) The standard […] (MTS)-3-(4,5-dimethylthiazol-2-yl)-5-(3-carboxymethoxyphenyl)-2-(4-sulphophenyl)-2H-tetrazolium inner salt solution assay was performed in order to examine the cytotoxic/cytostatic effect of GC2 on melanoma cells. Briefly, 7.5×10^3 cells were seeded in 96-well microtiter plates (Nunc). After an overnight incubation, serial dilutions of GC2 or DTIC were added in triplicate to a final volume of 100 μl. The blank was represented by a culture medium without cells containing the highest GC2 or DTIC concentration. After 24 h of incubation 20 μl MTS was added to each well and all samples were incubated for 3 h at 37° C. An absorbance of each well was read at 450 nm in a microplate reader. A percentage of cell viability was calculated considering that 100% cell viability was represented by an absorbance of untreated samples […]. Alternatively, the number of viable cells was determined by Trypan blue exclusion test. Melanoma cells treated with GC2 were trypsinized and cells negative for blue staining (viable cells) were counted using a hemocytometer. […]
A general note: Tetrazolium assays rely on reduction of a dye to a coloured formazan, in cell work by metabolically active cells.

Assay [2] has as its system MNT-1 melanoma cells. Description: MTS cell viability assay, MNT-1. The conditions noted are these: Homo sapiens, MNT-1, 24 h, read-out: IC50 (concentration reducing number of viable cells by 50%). Type of assay: cell-based. How it is done:
as §1, §2

Assay [3] concerns SKMel28 melanoma cells. Description: MTS cell viability assay, SKMel28. It counts as cell-based. The following applies: Homo sapiens, SK-MEL-28, SKMel28, 24 h, read-out: IC50 (concentration reducing number of viable cells by 50%). Here is the method: as §1, §2
Assay [4] deals with B16F10 melanoma cells. Kind of assay: MTS cell viability assay, B16F10. Type of assay: cell-based, murine. The conditions noted are these: Mus musculus, B16-F10, B16F10, 24 h, read-out: IC50 (concentration reducing number of viable cells by 50%). How it is done: as §1, §2
The subject of assay [5] is B16D2 melanoma cells. Description: MTS cell viability assay, B16D2. Type of assay: cell-based. The following applies: B16D2, 24 h, read-out: IC50 (concentration reducing number of viable cells by 50%). Here is the method:
as §1, §2

The subject of assay [6] is MNT-1 cells. Kind of assay: Annexin V/PI double labeling, flow cytometry, MNT-1. The following applies: MNT-1, 6 μM. Type of assay: cell-based. Here is the method:
Apoptosis in GC2-treated melanoma cells was detected using Annexin V and PI double labeling assay, see van Engeland, M., et al., Cytometry, 31, 1-9, 1998. Annexin V/PI labeling was applied to both fluorescence microscopy and flow cytometry following the protocol supplied by the manufacturer. Briefly, for fluorescence microscopy analysis adherent cells (approximately 16×10^4) treated with GC2 were washed with annexin V binding buffer, and incubated with Alexa Fluor® 488 Annexin V (5 μl in 1 ml annexin V binding buffer) for 15 min at RT, in the dark, to which 0.2 μg PI was added. Live cells were washed with annexin V binding buffer and examined by microscopy. For flow cytometric analysis, cells treated with GC2 were harvested by trypsinisation and a number of viable cells was counted. 16×10^4 cells were re-suspended in 0.2 ml annexin V binding buffer and treated in the same were adherent cells. Finally, labeled cells were analyzed with a FACScan™ using CellQuest™ software (Becton Dickinson, San Jose, Calif.).
Cells cultured under normal conditions for 24 h were further treated for 5 h, 8 h or 24 h with 6 μM of GC2, labeled with annexin V and PI and quantitatively analyzed by flow cytometry for viable, apoptotic and necrotic populations (FIG. 7).

The test system of assay [7] is actin network in SKMel28 and MelJuSo cells. Description: Actin staining with Alexa Fluor 594 phalloidin, fluorescence microscopy. Type of assay: cell-based. The conditions noted are these: 6 μM, 3 h. How it is done: Tumor cells were cultured 24 h on cover glasses, treated with GC2, and processed as described in Negroiu, G., et al. J. Biol. Chem. 278, 27035-27042, 2003. The acidic vesicular compartments were detected following incubation of live cells GC2 treated with Lysotracker® Red (0.125 μl/ml culture medium) for 30 min at 37° C. Fixed cells were incubated with the following primary antibodies: mouse anti-EEA1 (1:100), human-CD107A (anti-Lamp1) (1:50), a mouse anti-α tubulin (1:200) followed by an appropriate Alexa Fluor® 488 conjugated secondary antibodies (1:400) or with Alexa Fluor® 594 phalloidin. Finally, nuclei of fixed cells were stained with 5 mM Hoechst dye 33342. Cells were washed three times with PBS and mounted in Vectashield® mounting medium.
Whether tumor cell compartments and cytoskeletal elements are altered by GC2 treatment was analysed utilizing molecular markers for two main cell compartments: 1) EEA1 for early endosomes, which are accessed first by all endocytosed molecules and 2) Lamp-1 for lysosomes, the major degradative compartment. Actin filaments were labeled with Alexa Fluor® 594 phalloidin and microtubules with an anti-α-tubulin antibody; all samples were analyzed by fluorescence microscopy. […] Following GC2 treatment both endocytic markers were redistributed in large substructures detected also by phase contrast microscopy. […]

Take `CC(=O)O.CCCCCCCCCN1[C@@H](CO)[C@@H](O)[C@H](O)[C@@H]1CCCCCCCC` [GC2, (2S,3R,4R,5S)-3,4-dihydroxy-N-nonyl-5-octyl-2 hydroxymethylpyrrolidinium acetate]: the IC50 in assay [1] was 7 to 8 µM; in assay [2], 7 to 8 µM; in assay [3] it was 7 to 8 µM; in assay [4], 7 to 8 µM; in assay [5], 11 µM. Further, in assay [6] (5 h), the “increase of apoptotic population versus control” value is recorded as “doubled”. Further, the “increase of necrotic fraction versus control (factor)” value is reported as 2.3 in assay [6] (5 h), 2.9 in assay [6] (8 h) and 9.5 in assay [6] (24 h). The apoptotic population was determined as 6.94% in assay [6] (5 h, control 3.29%); 15.49% in assay [6] (8 h, control 4.32%); 24.86% in assay [6] (24 h, control 3.25%). The necrotic fraction in assay [6] (5 h, control 4.24%) was 10.07%; in assay [6] (8 h, control 5.84%) it was 17.25%; in assay [6] (24 h, control 2.07%), 19.18%. Also, the “increase of apoptotic population versus control (times)” value in assay [6] (8 h) amounted to 3.5; in assay [6] (24 h), 7.6. Moreover, the “pattern of the fluorescent actin marker” value in assay [7] is given as “disrupted”.
